Data: patent publication US9718828B2 (MERCK SHARP & DOHME CORP., priority 2011, dated 2017)
Where a name gives a salt, the structure may show the parent alone. Read-outs that look alike come from different tables or passages of the source.

Target: Btk enzyme (His-Btk) (Homo sapiens (Human), UniProt Q06187)
Assay: Btk enzyme activity, IMAP fluorescence polarization assay (Assay Method A)
[1] = read-out: EC50 Btk activity values - Assay Method A, IMAP-FP, 60 min pre-incubation, 5 μM ATP, class 100-1000 is given as ≧100 nM-<1 μM

Chain of Btk enzyme (His-Btk) (Q06187 whole entry): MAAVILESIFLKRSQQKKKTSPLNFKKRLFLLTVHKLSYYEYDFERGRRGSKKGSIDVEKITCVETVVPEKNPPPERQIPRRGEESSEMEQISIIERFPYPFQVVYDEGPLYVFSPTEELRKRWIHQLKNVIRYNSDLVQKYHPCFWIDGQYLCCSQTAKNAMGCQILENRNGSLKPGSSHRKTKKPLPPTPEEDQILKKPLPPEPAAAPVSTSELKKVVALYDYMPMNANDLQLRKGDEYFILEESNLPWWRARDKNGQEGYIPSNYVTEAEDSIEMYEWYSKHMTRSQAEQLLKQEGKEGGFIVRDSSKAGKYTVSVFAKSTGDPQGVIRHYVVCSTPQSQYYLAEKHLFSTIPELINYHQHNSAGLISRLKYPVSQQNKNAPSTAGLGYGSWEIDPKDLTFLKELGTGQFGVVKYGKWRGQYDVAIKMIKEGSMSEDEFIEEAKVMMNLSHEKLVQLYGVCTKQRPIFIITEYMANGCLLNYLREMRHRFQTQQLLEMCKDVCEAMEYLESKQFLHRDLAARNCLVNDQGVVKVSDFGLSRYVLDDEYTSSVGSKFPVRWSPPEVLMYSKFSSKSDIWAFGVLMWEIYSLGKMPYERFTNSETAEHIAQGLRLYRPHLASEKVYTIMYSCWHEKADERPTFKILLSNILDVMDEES

Row | SMILES | EC50 [nM] | EC50 [1] [nM]
1 | CC(CNC(=O)OCc1ccccc1)c1nc(-c2ccc(C(=O)Nc3cc(C(F)(F)F)ccn3)cc2)c2c(N)nccn12 (centres unmarked) [Example 132, benzyl 2-(8-amino-1-(4-(4-(trifluoromethyl)pyridin-2-ylcarbamoyl)phenyl)imidazo[1,5-a]pyrazin-3-yl)propylcarbamate] | 10 to 100 | 
2 | Nc1nccn2c([C@@H]3CCC[C@H](NC(=O)C4CC4)C3)nc(-c3ccc(C(=O)Nc4cc(C(F)(F)F)ccn4)cc3)c12 (relative stereo) [Example 156, 4-(8-amino-3-((cis)-3-(cyclopropanecarboxamido)cyclohexyl)imidazo[1,5-a]pyrazin-1-yl)-N-(4-(trifluoromethyl)pyridin-2-yl)benzamide] |  | < 10
3 | COC(=O)c1cnc(N)c2c(-c3ccc(C(=O)Nc4cc(C(F)(F)F)ccn4)cc3)nc(C)n12 [Example 312, methyl 8-amino-3-methyl-1-(4-(4-(trifluoromethyl)pyridin-2-ylcarbamoyl)phenyl)imidazo[1,5-a]pyrazine-5-carboxylate] | 10 to 100 | 
4 | Nc1nccn2c(N3CCCC(C(=O)NCC4CC4)C3)nc(-c3ccc(C(=O)Nc4cc(C(F)(F)F)ccn4)cc3)c12 (centres unmarked) [Example 233, 1-(8-amino-1-(4-(4-(trifluoromethyl)pyridin-2-ylcarbamoyl)phenyl)imidazo[1,5-a]pyrazin-3-yl)-N-(cyclopropylmethyl)piperidine-3-carboxamide, TFA salt] |  | < 10
5 | CCNC(=O)N1CCOC(c2nc(-c3ccc(C(=O)Nc4cc(C(F)(F)F)ccn4)cc3)c3c(N)nccn23)C1 (centres unmarked) [Example 178, 2-(8-amino-1-(4-(4-(trifluoromethyl)pyridin-2-ylcarbamoyl)phenyl)imidazo [1,5-a]pyrazin-3-yl)-N-ethylmorpholine-4-carboxamide] |  | < 10
6 | CC(C)C(=O)N[C@@H]1CCC[C@@H](c2nc(-c3ccc(C(=O)Nc4cc(C(F)(F)F)ccn4)cc3)c3c(N)nccn23)C1 (relative stereo) [Example 167, 4-(8-amino-3-((trans)-3-isobutyramidocyclohexyl)imidazo [1,5-a]pyrazin-1-yl)-N-(4-(trifluoromethyl)pyridin-2-yl)benzamide] |  | < 10
7 | CCCc1ccnc(NC(=O)c2ccc(-c3nc([C@H]4CC[C@H](O)CC4)n4ccnc(N)c34)c(C)c2)c1 [Example 10, 4-(8-amino-3-((trans)-4-hydroxycyclohexyl)imidazo[1,5-a]pyrazin)-3-methyl-N-(4-propylpyridin-2-yl)benzamide] |  | < 10
8 | CCCc1ccnc(NC(=O)c2ccc(-c3nc([C@H]4CC[C@H](O)CC4)n4ccnc(N)c34)cc2OC)c1 [Example 11, 4-(8-amino-3-((trans)-4-hydroxycyclohexyl)imidazo[1,5-a]pyrazin-1-yl)-2-methoxy-N-(4-propylpyridin-2-yl)benzamide] |  | < 10
9 | CC1(C(=O)N2C[C@@H](O)C[C@@H](c3nc(-c4ccc(C(=O)Nc5cc(C(F)(F)F)ccn5)cc4)c4c(N)nccn34)C2)COC1 (relative stereo) [Example 179, 4-(8-amino-3-((cis)-5-hydroxy-1-(3-methyloxetane-3-carbonyl)piperidin-3-yl)imidazo[1,5-a]pyrazin-1-yl)-N-(4-(trifluoromethyl)pyridin-2-yl)benzamide] | 10 to 100 | 
10 | Nc1nccn2c([C@@H]3CCC[C@@H](NC(=O)C4CCC4)C3)nc(-c3ccc(C(=O)Nc4cc(C(F)(F)F)ccn4)cc3)c12 (relative stereo) [Example 171, 4-(8-amino-3-((trans)-3-(cyclobutanecarboxamido)cyclohexyl)imidazo[1,5-a]pyrazin-1-yl)-N-(4-(trifluoromethyl)pyridin-2-yl)benzamide] |  | < 10
11 | Nc1nccn2c(N3CCCC(C(=O)N[C@@H]4CCOC4)C3)nc(-c3ccc(C(=O)Nc4cc(C(F)(F)F)ccn4)cc3)c12 (stereo partly drawn) [Example 238, 1-(8-amino-1-(4-(4-(trifluoromethyl)pyridin-2-ylcarbamoyl)phenyl)imidazo[1,5-a]pyrazin-3-yl)-N-((R)-tetrahydrofuran-3-yl)piperidine-3-carboxamide, TFA salt] |  | < 10
12 | COCCC(=O)N1CCC[C@@H](n2nc(-c3ccc(C(=O)Nc4cc(C(F)(F)F)ccn4)cc3)c3c(N)ncnc32)C1 [Example 280, (R)-4-(4-amino-1-(1-(3-methoxypropanoyl)piperidin-3-yl)-1H-pyrazolo[3,4-d]pyrimidin-3-yl)-N-(4-(trifluoromethyl)pyridin-2-yl)benzamide] |  | < 10

Continued, values first:

Row | EC50 [nM] | EC50 [1] [nM] | SMILES
13 |  | < 10 | CO[C@H]1CC[C@@H](c2nc(-c3ccc(C(=O)Nc4cc(C(F)(F)F)ccn4)cc3)c3c(N)nccn32)CC1 [Example 40, 4-(8-amino-3-((cis)-4-methoxycyclohexyl)imidazo [1,5-a]pyrazin-1-yl)-N-(4-(trifluoromethyl)pyridin-2-yl)benzarnide]
14 |  | < 10 | COCCC(=O)N1C[C@H](c2nc(-c3ccc(C(=O)Nc4cc(C5CC5)ccn4)cc3)c3c(N)nccn23)CC[C@@H]1C (relative stereo) [Example 183, 4-(8-amino-3-((cis)-1-(3-methoxypropanoyl)-6-methylpiperidin-3-yl)imidazo[1,5-a]pyrazin-1-yl)-N-(4-cyclopropylpyridin-2-yl)benzamide, TFA salt]
15 | 100 to 1000 |  | CC(C)C(=O)N1CC[C@@H](c2nc(-c3ccc(C(=O)Nc4ccccn4)cc3)c3c(N)nccn23)C1 [Example 127, (R)-4-(8-amino-3-(1-isobutyrylpyrrolidin-3-yl)imidazo[1,5-a]pyrazin-1-yl)-N-(pyridin-2-yl)benzamide, TFA salt]
16 |  | < 10 | Nc1nccn2c([C@@H]3CCCN(C(=O)CN4CCOC4=O)C3)nc(-c3ccc(C(=O)Nc4cc(C5CC5)ccn4)cc3)c12 [Example 110, (R)-4-(8-amino-3-(1-(2-(2-oxooxazolidin-3-yl)acetyl)piperidin-3-yl)imidazo[1,5-a]pyrazin-1-yl)-N-(4-cyclopropylpyridin-2-yl)benzamide]
17 |  | < 10 | COCCC(=O)N1CCC[C@@H](c2nc(-c3ccc(C(=O)Nc4ccccn4)cc3F)c3c(N)nccn23)C1 [Example 284, 4-(8-amino-3-((R)-1-(3-methoxypropanoyl)piperidin-3-yl)imidazo[1,5-a]pyrazin-1-yl)-3-fluoro-N-(pyridin-2-yl)benzamide, TFA salt]
18 |  | < 10 | CCCc1ccnc(NC(=O)c2ccc(-c3nc([C@H]4CC[C@@H](OC)CC4)n4ccnc(N)c34)cc2)c1 [Example 42, 4-(8-amino-3-((cis)-4-methoxycyclohexyl)imidazo [1,5-a]pyrazin-1-yl)-N-(4-propylpyridin-2-yl)benzamide]
19 | < 10 |  | C=CC1(C(=O)N2CCC[C@@H](c3nc(-c4ccc(C(=O)Nc5cc(C(F)(F)F)ccn5)cc4)c4c(N)nccn34)C2)COC1 [Example 91, (R)-4-(8-amino-3-(1-(3-vinyloxetane-3-carbonyl)piperidin-3-yl)imidazo[1,5-a]pyrazin-1-yl)-N-(4-(trifluoromethyl)pyridin-2-yl)benzamide]
20 |  | < 10 | Cn1cc(CN2CCC[C@@H](c3nc(-c4ccc(C(=O)Nc5ccccn5)cc4)c4c(N)nccn34)C2)cn1 [Example 135, (R)-4-(8-amino-3-(1-((1-methyl-1H-pyrazol-4-yl)methyl)piperidin-3-yl)imidazo[1,5-a]pyrazin-1-yl)-N-(pyridin-2-yl)benzamide, TFA salt]
21 |  | < 10 | Nc1nccn2c1c(-c1ccc(C(=O)Nc3cc(-c4ccccc4)ccn3)cc1)nc2[C@H]1CC[C@H](O)CC1 [Example 20, 4-(8-amino-3-((trans)-4-hydroxycyclohexyl)imidazo[1,5-a]pyrazin-1-yl)-N-(4-phenylpyridin-2-yl)benzamide]
22 |  | < 10 | CCNC(=O)N[C@H]1CCC[C@@H](c2nc(-c3ccc(C(=O)Nc4cc(C(F)(F)F)ccn4)cc3)c3c(N)nccn23)C1 (relative stereo) [Example 155, 4-(8-amino-3-((cis)-3-(3-ethylureido)cyclohexyl)imidazo [1,5-a]pyrazin-1-yl)-N-(4-(trifluoromethyl)pyridin-2-yl)benzamide]
23 | 10 to 100 |  | Nc1nccn2c([C@@H]3CCCN(C(=O)CO)C3)nc(-c3ccc(C(=O)Nc4ccccn4)cc3)c12 [Example 53, (R)-4-(8-amino-3-(1-(2-hydroxyacetyl)piperidin-3-yl)imidazo[1,5-a]pyrazin-1-yl)-N-(pyridin-2-yl)benzamide]
24 | 100 to 1000 |  | COC1CN(c2nc(-c3ccc(C(=O)Nc4ccccn4)cc3)c3c(N)nccn23)C1 [Example 217, 4-(8-amino-3-(3-methoxyazetidin-1-yl)imidazo[1,5-a]pyrazin-1-yl)-N-(pyridin-2-yl)benzamide]
25 | 10 to 100 |  | Nc1nccn2c([C@@H]3CCCN(C(=O)C4CCOC4)C3)nc(-c3ccc(C(=O)Nc4ccccn4)cc3)c12 (stereo partly drawn) [Example 56, 4-(8-amino-3-((3R)-1-(tetrahydrofuran-3-carbonyl)piperidin-3-yl)imidazo[1,5-a]pyrazin-1-yl)-N-(pyridin-2-yl)benzamide, TFA salt]
26 |  | < 10 | Cc1ccnc(NC(=O)c2ccc(-c3nc([C@H]4CC[C@H](O)CC4)n4ccnc(N)c34)cc2)c1 [Example 5, 4-(8-amino-3-((trans)-4-hydroxycyclohexyl)imidazo[1,5-a]pyrazin-1-yl)-N-(4-methylpyridin-2-yl)benzamide]
27 | < 10 |  | CO[C@H]1CC[C@@H](c2nc(-c3ccc(C(=O)Nc4cc(C#N)ccn4)cc3)c3c(N)nccn32)CC1 [Example 41, 4-(8-amino-3-((cis)-4-methoxycyclohexyl)imidazo [1,5-a]pyrazin-1-yl)-N-(4-cyanopyridin-2-yl)benzamide]
28 | 100 to 1000 |  | Nc1nccn2c([C@@H]3CCCN(Cc4ccccc4)C3)nc(-c3ccc(C(=O)Nc4ccccn4)cc3)c12 [Example 133, (R)-4-(8-amino-3-(1-benzylpiperidin-3-yl)imidazo[1,5-a]pyrazin-1-yl)-N-(pyridin-2-yl)benzamide]
29 | < 10 |  | CC(C)(C)C(=O)N1CCC[C@@H](c2nc(-c3ccc(C(=O)Nc4cc(C(F)(F)F)ccn4)cc3)c3c(N)nccn23)C1 [Example 76, (R)-4-(8-amino-3-(1-pivaloylpiperidin-3-yl)imidazo[1,5-a]pyrazin-1-yl)-N-(4-(trifluoromethyl)pyridin-2-yl)benzamide]
